Experimental data reported in US20210267193A1, “Pest Repellent Agent” (Kao Corporation, priority 2018, published 2021).

Columns and labels:
[1] = Measurement of viscosity (B-type rotational viscometer); format: physicochemical; conditions: rotor M2 (12 or 6 rpm) or L adapter (30 rpm) as listed per sample
Experimental: (2) Measurement of Viscosity
Viscometer TVB-10, manufactured by […] Co., Ltd. was used as a B-type rotational viscometer according to JIS K7117-1:1999. As to components to be measured, a viscosity value greatly differs for every sample, and therefore, it is difficult to accurately measure all components under a single measurement condition. Then, the measurement was performed using two types of rotors. The viscosity was first measured at a rotational speed of 12 rpm using a rotor M2 in an environment at 23° C. At this time, the component having a viscosity of 2,500 mPa·s or more was again measured at a rotational speed of 6 rpm, to obtain the viscosity value.
On the other hand, the component having a viscosity of 20 mPa·s or less was again measured at a rotational speed of 30 rpm using an L adapter that is a rotor for low viscosity in an environment of 23° C., to obtain the viscosity value.

[2] = Measurement of surface tension (Wilhelmy method, Tensiometer K100); format: physicochemical; conditions: static surface tension, platinum plate
Experimental: (1) Measurement of Surface Tension
An automatic surface tensiometer: Tensiometer K100 (manufactured by KRUSS GmbH) was used to measure the static surface tension by the Wilhelmy method using a platinum plate in an environment at 25° C.

Aedes albopictus [3] = test: Mosquito landing rate on replica skin substrate applied with repellent; format: in vivo; conditions: for Landing rate (at 0.25 mg/cm^2): coverage 0.25 mg/cm^2 on polyurethane replica skin substrate
Experimental: (3) Mosquito Landing Rate
The repellent effect of the pest repellent was evaluated in terms of a mosquito landing rate.
(3-1) Preparation of Aedes albopictus
(§1) Female adults of Aedes albopictus were purchased from Mostop Inc. The adults were bred in a room at 28° C. and a relative humidity of 70% RH with a 12-hour light/dark cycle after delivery and appropriately used for tests. During breeding of mosquitoes, a 3% by mass sucrose aqueous solution was given as a feed.
(3-3) Calculation of Mosquito Landing Rate
The mosquito landing rate was determined by applying a repellent onto the aforementioned replica skin substrate in the manner as mentioned below to form a substrate surface, counting the number of mosquitoes landed on the substrate surface, and calculating the mosquito landing rate on the applied surface. This replica skin substrate is a disk having a diameter of 5 cm. Here, the term “landed” means that the mosquito stayed on the replica skin substrate for at least one second.
Four replica skin substrates were prepared, two of which were uniformly applied with a repellent with a fingertip wearing a rubber glove, and the other two were not applied with the repellent. Thereafter, the four substrates were vertically mounted in a glass box having a length, a width, and a height of about 6 cm on each side, such that the applied surface was located inside the boxy. This box has a circular hole with a diameter of 4 cm in the vertical and horizontal directions when viewed from the top, and by setting the aforementioned substrate, a part of the inner wall surface of the box can be made as the substrate surface. Two adjacent surfaces among the four surfaces of the inner wall of the box were set as substrates onto which the repellent was applied.
Four mosquitoes were enclosed in the glass-made box, and a shock was applied to force the mosquitoes to fly, thereby recording on what surface they first landed within 10 seconds. This was repeated 20 times, and the mosquito landing rate on the applied surface was calculated by the following equation.
Mosquito landing rate on applied surface (%)={(Number of mosquitoes landed on two surfaces of replica skin substrates applied with repellent)/(Number of mosquitoes landed on any of four surfaces of replica skin substrates)}×100
In the case of repeating the aforementioned test, fresh unused mosquitoes were used for every test, and the landing rate was calculated as an average.
It is expressed that as the landing rate is lower, the staying of mosquitoes can be suppressed, and the repellent effect is excellent.
In Comparative Example 2, a frosted glass-made substrate (Tempax #240, manufactured by Cosmode Co., Ltd.) was used in place of the replica skin substrate.
The liquid oily component shown in Table 1 was prepared, and the liquid oily component shown in Table 2 was uniformly applied onto the aforementioned replica skin substrate at a coverage of 0.5 mg/cm^2, and the mosquito landing rate was calculated.
In Example 1, each of the liquid oily components shown in Table 3 was uniformly applied onto the replica shin substrate at a coverage of 0.25 mg/cm^2, and the mosquito landing rate was calculated.

Aedes albopictus [4] = test: Mosquito landing rate using human forearm; format: in vivo; conditions: 4 cm x 5 cm test site, 5 mg (0.25 mg/cm^2), about 50 mosquitoes, 28° C., 70% RH
Experimental: (4) Evaluation of Mosquito Landing Rate Using Human Forearm
The repellent effect of the pest repellent on human forearm was evaluated in terms of a mosquito landing rate.
(4-1) Preparation of Aedes albopictus
as §1, with “feed. In order to facilitate the induction to the forearm, before the test, the food was changed to water, and the mosquitoes were fasted for 12 hours or more.” for “feed.”
(4-2) Calculation of Landing Rate
The forearm was washed with a body wash (Biore u, manufactured by Kao Corporation), and water droplets were wiped off with a paper towel, followed by performing acclimatization for 10 minutes at room temperature. Thereafter, a rubber glove (Singer Latex Long Glove M, manufactured by Utsunomiya Seisakusho Co., Ltd.) covering up to the elbow was put on the arm to be measured. The mosquito cannot bite through the rubber glove.
The rubber glove was cut off with scissors to expose a test site of 4 cm×5 cm toward the inside of the forearm. The area around the opening of the rubber glove is reinforced with a pressure-sensitive adhesive tape. Then, the resultant was moved to a constant temperature and constant humidity room (28° C., relative humidity: 70%), followed by performing acclimatization for 3 minutes. 5 mg (0.25 mg/cm^2) of the repellent was applied on the test site with a finger wearing the rubber glove, and immediately thereafter, the arm was inserted into a test box (Bug Dorm-1, manufactured by MegaView Science Co., Ltd., 30 cm×30 cm×30 cm). Approximately 50 test mosquitoes are released in this test box. The mosquito stays on the skin and then begins to bite by placing a needle on the skin. In order to prevent blood sucking into the forearm, mosquitoes are removed by using an inset suction pipe passed through a hole into which the arm is inserted just before starting biting. The measurement was terminated at the time when the total number of mosquitoes that succeeded in landing (reached just before the start of biting) and mosquitoes that touched the skin but escaped without landing reached 15. […] The mosquito landing rate was calculated by the following equation. […]
Each of the liquid oily components shown in Table 4 was applied onto the test site of the human forearm at a coverage of 0.25 mg/cm^2, and the mosquito landing rate on the applied surface of the forearm was calculated.

pests = conditions: content in the pest repellent composition; existing pest repellents; cited from earlier work
[5] = lower = better repellent effect
[6] = coverage 0.5 mg/cm^2 on polyurethane replica skin substrate, stay of at least 1 second counts as landed, lower = better repellent effect

Row | Viscosity (at 23° C.) [1] [mPa · s] | Surface tension (at 25° C.) [2] [mN/m] | Compound | Landing rate (at 0.25 mg/cm^2) (Aedes albopictus [3]; [5]) [%] | Landing rate (at 0.5 mg/cm^2) (Aedes albopictus [3]; [6]) [%] | Landing rate on exposed area (at 0.25 mg/cm^2) (Aedes albopictus [4]) [%] | Landing rate (at 0.5 mg/cm^2) (Aedes albopictus [3]; coverage 0.5 mg/cm^2 on frosted glass-made substrate (Tempax #240) in place of replica skin substrate) [%] | effective amount (pests) [% by mass]
1 | 5 | 28 | CCCCCCCCCCCCCC(=O)OC(C)C [Ester oil b5, Isopropyl myristate] | 11 | 11 | 24 | – | –
2 | 11 | 28 | CC(C)CCCCCCCCCCOC(=O)CCCCCC(C)C [Ester oil b2, Isotridecyl isononanoate] | – | 15 | – | – | –
3 | 74 | 29 | CCCCCCCCCCC(CO)CCCCCCCC (centres unmarked) [Higher alcohol e1, 2-Octyl dodecanol] | 16 | – | – | – | –
4 | – | 65 | OCC(O)CO [Polyhydric alcohol fx2, Glycerin, reference compound] | – | – | 75 | – | –
5 | 15 | 28 | CCCCCCCCCC(=O)OCC(C)(C)COC(=O)CCCCCCCCC [Ester oil b6, Neopentyl glycol dicaprate] | – | 20 | – | – | –
6 | 7 | 27 | CCCCCCCCCCCCCCCC(=O)OC(C)C [Ester oil b4, Isopropyl palmitate] | – | 19 | – | – | –
7 | 1000 | 27 | Polyglyceryl diisostearate [Ester oil bx1] | – | 21 | – | – | –

The remaining lines, values behind:

Row | Compound | Viscosity (at 23° C.) [1] [mPa · s] | Surface tension (at 25° C.) [2] [mN/m] | Landing rate (at 0.25 mg/cm^2) (Aedes albopictus [3]; [5]) [%] | Landing rate (at 0.5 mg/cm^2) (Aedes albopictus [3]; [6]) [%] | Landing rate on exposed area (at 0.25 mg/cm^2) (Aedes albopictus [4]) [%] | Landing rate (at 0.5 mg/cm^2) (Aedes albopictus [3]; coverage 0.5 mg/cm^2 on frosted glass-made substrate (Tempax #240) in place of replica skin substrate) [%] | effective amount (pests) [% by mass]
8 | OCCCO [Polyhydric alcohol fx1, 1,3-Propanediol, reference compound] | 53 | 48 | – | – | – | 39 | –
9 | CC(C)=CCCC(C)CCO (centres unmarked) [citronellol] | – | – | – | – | – | – | ≥ 10
10 | CC(C)=CCC/C(C)=C/CC/C(C)=C/CC/C=C(\C)CC/C=C(\C)CCC=C(C)C [Hydrocarbon oil d3, Squalene] | 42 | 30 | – | 21 | 12 | – | –
11 | CC(C)CCCCCCOC(=O)CCCCCC(C)C [Ester oil b1, Isononyl isononanoate] | 6 | 25 | – | 22 | – | – | –
12 | CCC(C)OC(=O)N1CCCCC1CCO (centres unmarked) [Icaridin] | – | – | – | – | – | – | ≥ 5
13 | CCCCCCCCCCCCCCCCOC(C)CC(C)C (centres unmarked) [Ether oil c1, Cetyl-1,3-dimethylbutyl ether] | 7 | 28 | – | 13 | 15 | – | –
14 | CCCCC(CC)C(=O)OCC(C)(C)COC(=O)C(CC)CCCC (centres unmarked) [Ester oil b3, Neopentyl glycol di-2-ethylhexanoate] | – | 28 | – | 12 | – | – | –
15 | CCN(CC)C(=O)c1cccc(C)c1 [DEET, N,N-diethyl-m-toluamide] | – | – | – | – | – | – | ≥ 4
